Laboratory results as given in patent US7098307B2, “Neo-tryptophan” (Mayo Foundation for Medical Education and Research, priority 1998, dated 2006).
Square brackets hold non-standard residues; d marks the D form. Peptide text beside a SMILES is read from it. Ala(indol-4-yl) = N[C@@H](Cc1cccc2[nH]ccc12)C(=O)O; NMeR = CN[C@@H](CCCNC(=N)N)C(=O)O; Tle = CC(C)(C)[C@H](N)C(=O)O

What was measured:
human NTR1 [1] = target: T1, human NTR1 (Homo sapiens, UniProt P30989); assay: Competition binding with [3H]NT, membranes of CHO-K1 cells transfected with human NTR1
T1 construct: expressed in transfected cells; host or cells: CHO-K1
Protocol: (§1) CHO-K1 cells were stably transfected with nucleic acid encoding either the human NTR1 or the rat NTR1, and cultured in 150 mm petri plates with 35 mL of Dulbecco-modified Eagle's medium containing 100 μM minimal essential medium nonessential amino acids (GIBCO) supplemented with 5% (v/v) FetalClone II bovine serum product (Hyclone Labs, Logan, Utah). CHO cells (subculture 9–19) were harvested at confluency. Briefly, the medium from each plate was removed by aspiration, and the cells washed with 6 mL of 50 mM Tris-HCl (pH 7.4) and resuspended in 5–10 mL of Tris-HCl by scraping the cells with a rubber spatula. The resuspended cells were placed into a centrifuge tube and collected by centrifugation at 300× g for five minutes at 4° C. in a GPR centrifuge (Beckman Instruments, Fullerton, Calif.). The cellular pellet (in 50 mM Tris-HCl, 1 mM EDTA, pH 7.4) was stored at […] until radioligand binding was performed.
(§2) The supernatant was decanted and discarded, and the cellular pellet was resuspended in 2 mL of Tris-HCl, 1 mM EDTA (pH 7.4) followed by homogenization with a Brinkmann Polytron at setting 6 for ten seconds. Centrifugation was repeated as above and the supernatant was decanted and discarded. The resulting final cellular pellet was resuspended in 50 mM Tris-HCl, lmM EDTA, 0.1% bovine serum albumin, and 0.2 mM bacitracin.
(§3) Incubation was at 20° C. for 30 minutes. Each reaction was terminated by addition of cold 0.9% NaCl (5×1.5 mL) followed by rapid filtration through a GF/B filter strip that had been pretreated with 0.2% polyethylenimine.

rat NTR1 [2] = target: T2, rat NTR1 (Rattus norvegicus, UniProt P20789); assay: Competition binding with [3H]NT, membranes of CHO-K1 cells transfected with rat NTR1
T2 construct: expressed in transfected cells; host or cells: CHO-K1
Protocol: as §1, §2, §3

human NTR1 [3] = target: T1, human NTR1; assay: PI turnover ([3H]IP1) in intact CHO-K1 cells, human NTR1; format: cell-based
Protocol: (§4) To measure PI turnover, intact CHO-K1 cells were harvested at about 80% confluency. Cells were detached from the petri plates by removal of culture medium followed by incubation of the cellular monolayer for 20 minutes at 37° C. with gentle shaking in a modified Puck's D1 solution containing 2 mM EGTA. […] Briefly, intact CHO cells were prelabeled with D-myo-[^3H]inositol (18.3 Ci/mmol) in the presence of lithium chloride (final concentration, 10 mM). […] For the experiments described herein, the stimulation time was 30 minutes, and the number of CHO cells per assay tube was 1.5×10^5.

rat NTR1 [4] = target: T2, rat NTR1; assay: PI turnover ([3H]IP1) in intact CHO-K1 cells, rat NTR1; format: cell-based
Protocol: as §4

[5] = Degradation in rat intestinal preparation; format: in vitro ADME; conditions: pH 7.4, 37° C., read-out: half-time, Rat Intestinal Preparation (converted)
Protocol: For intestinal preparations, rats were sacrificed by decapitation, and the small intestines removed. The tissue was washed with ice-cold PBS (10 mM, pH 7.4). About […] of intestinal tissue was added to about 10 mL of PBS and homogenized using a Brinkman polytron homogenizer (setting 6). After homogenization, 10 mL of PBS was added to 10 mL of the intestinal homogenate. […] The supernatant was removed and stored at −20° C. until testing. Immediately before incubation with the polypeptide, the intestinal preparation was filtered through a 0.2 μm filter. Testing procedures were similar to those for the plasma tests.
For the degradation studies, data were plotted in linear form as a semi-log plot with SigmaPlot for Windows Version 4.00. Linear regression on these plots provided the parameters used to calculate the half-time (t1/2) for degradation of each polypeptide. The correlation coefficient (R) for the linear regression was taken as a measure of the goodness-of-fit.

[6] = Body weight and food intake in rats; format: in vivo, rat; conditions: for increase from original body weight at day 15: saline 29%
Protocol: Two groups of male Sprague-Dawley rats (small and large) and one group of genetically obese Zucker rats were used to study the influence of NT69L on various aspects of body weight. The group of small Sprague-Dawley rats weighed about 270 g at the beginning of the study, while the group of large Sprague-Dawley rats weighted about 400 g. […] The rats had free access to commercial hard rat chow pellets and tap water. During the study, the rats received 100 μL of either saline only or 1 μg/kg, 10 μg/kg, or 1 mg/kg of NT69L on days 1, 2, 7, 8, 11, and 12. Food intake (g), water consumption (mL), and body weight (g) were recorded daily for 15 days. The results were presented as mean ± SEM, or as % of original weight. The data were compared by variance analysis (unpaired or paired Student's t test) and Rank sum test.

[7] = Blood glucose and hormone levels in rats; format: in vivo, rat; conditions: 1 mg/kg ip

T1 sequence (P30989 whole entry): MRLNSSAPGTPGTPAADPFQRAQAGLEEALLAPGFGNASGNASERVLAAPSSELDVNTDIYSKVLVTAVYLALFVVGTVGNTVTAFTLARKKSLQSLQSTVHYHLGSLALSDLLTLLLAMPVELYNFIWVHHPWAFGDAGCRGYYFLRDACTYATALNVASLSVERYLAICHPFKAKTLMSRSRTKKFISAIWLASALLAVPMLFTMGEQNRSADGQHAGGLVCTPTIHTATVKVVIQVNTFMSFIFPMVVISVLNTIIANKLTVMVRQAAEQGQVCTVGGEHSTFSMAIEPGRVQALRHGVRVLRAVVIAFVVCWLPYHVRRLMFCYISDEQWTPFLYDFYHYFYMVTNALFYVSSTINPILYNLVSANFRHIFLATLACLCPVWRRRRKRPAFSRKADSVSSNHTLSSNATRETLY
T2 sequence (P20789 whole entry): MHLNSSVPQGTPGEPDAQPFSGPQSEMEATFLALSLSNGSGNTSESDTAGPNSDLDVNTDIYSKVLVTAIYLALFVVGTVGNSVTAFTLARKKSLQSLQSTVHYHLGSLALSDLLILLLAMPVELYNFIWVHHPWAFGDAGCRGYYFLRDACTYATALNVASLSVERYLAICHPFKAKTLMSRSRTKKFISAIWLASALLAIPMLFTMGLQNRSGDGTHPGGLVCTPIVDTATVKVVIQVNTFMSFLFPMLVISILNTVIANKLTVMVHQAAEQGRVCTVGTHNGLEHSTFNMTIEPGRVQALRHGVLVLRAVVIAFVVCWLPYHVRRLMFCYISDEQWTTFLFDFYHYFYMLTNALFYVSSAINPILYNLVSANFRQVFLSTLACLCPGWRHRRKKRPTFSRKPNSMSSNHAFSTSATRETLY

CN[C@@H](CCCNC(=N)N)C(=O)N[C@@H](CCCCN)C(=O)N1CCC[C@H]1C(=O)N[C@@H](Cc1cccc2[nH]ccc12)C(=O)N[C@H](C(=O)N[C@@H](CC(C)C)C(=O)O)C(C)(C)C [NT69L] (H-[NMeR]KP[Ala(indol-4-yl)][Tle]L-OH; N-terminus and C-terminus assumed)
Kd (human NTR1 [1]): 1.55 ± 0.09 nM | increase in binding affinity at the human receptor versus Eisai (human NTR1 [1]): 60 fold | Kd (rat NTR1 [2]): 0.82 ± 0.07 nM | increase in binding affinity at the rat receptor versus Eisai (rat NTR1 [2]): 6 fold | EC50 (human NTR1 [3]): 2.3 nM | improvement in potency at PI turnover versus Eisai, human NTR1 (human NTR1 [3]): about 130 fold | EC50 (rat NTR1 [4]): 1.34 ± 0.02 nM | improvement in potency at PI turnover versus Eisai, rat NTR1 (rat NTR1 [4]): about two fold | half-life [5]: 4.1 h | food intake versus saline controls ([6]; Zucker rats, one to two days post injection): significantly reduced | increase in original body weight by day 15 ([6]; genetically obese Zucker rats, 1 mg/kg ip, saline 31%): 25% | reduction in original body weight by day 15 ([6]; large Sprague-Dawley rats, 1 mg/kg ip, saline […] increase): 3.0% | food intake versus saline controls ([6]; large Sprague-Dawley rats, one to two days post injection): significantly (P<0.003) less | increase from original body weight at day 15 ([6]; small Sprague-Dawley rats, 1 μg/kg ip): 9.0% | increase from original body weight at day 15 ([6]; small Sprague-Dawley rats, 10 μg/kg ip): 8.4% | food intake versus saline controls ([6]; small Sprague-Dawley rats, throughout the experiment): significantly (P<0.003) less | T4 level ([7]; Sprague-Dawley rats, one hour post injection, saline 2.6): 1.8 µg/dL | corticosterone level ([7]; Sprague-Dawley rats, one hour post injection, saline 6.1): 24.6 µg/dL | TSH level ([7]; Sprague-Dawley rats, one hour post injection, saline 7.65): 0.9 mIU/L | glucose level ([7]; Sprague-Dawley rats, one hour post injection, saline 130): 221 mg/dL | T4 ([7]; Zucker rats, one hour after injection, control 1.47): 1.03 µg/dL | TSH ([7]; Zucker rats, one hour after injection, control 1.9): 0.43 mIU/L | corticosterone ([7]; Zucker rats, one hour after injection, control 10.9): 19.7 µg/dL | blood glucose ([7]; Zucker rats, one hour after injection, control 140): 310 mg/dL
